Laboratory results as given in BindingDB's records for doi:10.1021/jm9004225 (National Institute On Drug Abuse and The National Institute …, 2009).
pKi: −log10 of the molar value.

Assay: Displacement of [3H]U69593 from human recombinant kappa opioid receptor expressed in CHO cells

Compound `CC[C@]12CCN(C)C[C@H]1Oc1ccc(O)cc12` [4aR,9aS-(+)-cis-4a-Ethyl-2-methyl-1,2,3,4,4a,9a-hexahydrobenzofuro[2,3-c]pyridin-6-ol] has a pKi of under 5.00.
